Results on one compound are retold here after patent EP4800015A1, “AZABICYCLO DERIVATIVE AND PREPARATION METHOD THEREFOR, AND USE” (Zhejiang Hisun Pharmaceutical Co., Ltd., priority 2023, dated 2025).

A short description of data set [1]: Caco-2 bidirectional permeability and efflux ratio. The conditions noted are these: human, Caco-2, 10 µM, 120 minutes. It is filed as in vitro ADME. Here is the method:
(§1) The bidirectional permeability and efflux ratio of the example compounds and control compound were determined in a Caco-2 monolayer cell model.
(§2) Caco-2 cells (cultured at Shanghai Medicilon Inc.) were recovered in the experiment. After the cells were in good condition, they were digested, and the cell density was adjusted (1 × 10^5 cells/cm^2). Caco-2 cells were seeded into Transwell chambers and placed in 24-well plates for cultivation. After continuous cultivation for about 21 days, TEER values were measured one day before the experiment to ensure formation of a confluent cell monolayer for transport experiments (TEER > 200 Ω·cm^2). Test compounds were diluted from 10 mM stock solutions to 10 µM concentration using transport buffer (HBSS containing BSA) (metoprolol and atenolol were set as positive compounds). For efflux determination, 0.6 mL of compound dilution solution was added to the outer well (side B), and 0.4 mL of blank transport buffer was added to the Transwell chamber. For absorption determination, 0.4 mL of transport buffer containing compound was added to the Transwell chamber, and 0.6 mL of blank transport buffer was added to the outer side. After setup, the 24-well plates were cultivated at 37 °C and 5% CO2 with 95% relative humidity for 120 minutes, and permeability of test compounds from A to B direction or B to A direction was measured, respectively, with two duplicate wells set for each direction. Liquid in Transwell chambers and 24-well plates was collected separately, 60 µL each, and 180 µL of acetonitrile (containing internal standard) was added, vortexed for 1 min, then centrifuged at 4 °C, 10000 rpm for 10 min. The supernatant was taken, filtered through a 0.22 µm membrane, and placed in vials for testing. The content of the compounds in each Transwell chamber and 24-well plate was determined by liquid chromatography-tandem mass spectrometry (LC-MS/MS). Table 4 Permeability data of compounds of the present disclosure
(In general: Caco-2 cells form a polarised layer with tight junctions and transporters.)

Data set [2] has as its system Caco-2 monolayer cell model. In words: Caco-2 bidirectional permeability and efflux ratio. It is filed as in vitro ADME. The conditions noted are these: Caco-2, conclusion. Here is the method:
as §1, §2

The nature of data set [3]: Metabolic stability in dog liver microsomes. It counts as in vitro ADME. The conditions noted are these: dog liver microsomes 0.5 mg mL^-1, NADPH 1 mM, 0-60 min; read-out: Liver microsomal stability t1/2 (min) Dog. The procedure: The purpose of this study was to investigate the metabolic stability of the compounds of the present disclosure in human and dog liver microsomes.
The compounds were co-incubated with human (or dog) liver microsomes, and the reaction was initiated by adding coenzyme NADPH (1 mM). At 0, 5, 15, 30, and 60 minutes, 60 µL of incubation solution was removed, and 180 µL of acetonitrile containing internal standard (clopidogrel) was added to quench the reaction, the mixture was shaken for 10 seconds, centrifuged at 10000 rpm for 10 minutes, and the supernatant was taken for analysis by LC-MS/MS. The in vitro intrinsic clearance was calculated based on the elimination half-life of the test compound in the incubation system. Midazolam was used as an internal reference compound, with two parallel incubations for each. Incubation conditions are summarized in Table 6 below: Table 6 Incubation conditions for the example compounds of the present disclosure
The ratio of the peak area of analyte to internal standard (Aanalyte/AIS) was obtained from the instrument, and the remaining percentage (%Control) was calculated from the ratio of Aanalyte/AIS in non-zero time point samples to zero time samples. Ln (%Control) was plotted against incubation time and linearly fitted. The test compound clearance constant (k, min^-1) and clearance half-life (T1/2, min) were calculated using the following equations. k = −slope [formula] T1/2 = 0.693/k. [formula]

Another data set relates to RL95-2 cells. In words: Inhibition of RL95-2 cell proliferation (CellTiter-Glo). It counts as cell-based. The conditions noted are these: Homo sapiens; RL95-2 cells (MSI-H), 120 hours. Put shortly: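 RL95-2 (MSI-H) cells, 500/well in DMEM/F12 with 10% FBS, adhered overnight, then treated 120 h at 37 °C, 5% CO2 with compound at final 1.52-10000 nM. Viability by CellTiter-Glo luminescence. Inhibition relative to 0.1% DMSO control; IC50 from nonlinear regression of log concentration versus inhibition.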
On the technique in general: Cellular ATP, detected with luciferase, serves as a proxy for viable cell number.

Each structure is given as a SMILES string.

By Papp A→B is commonly meant the apparent permeability from the apical to the basolateral side of a cell layer. A word on the Papp B→A: it is the apparent permeability from the basolateral to the apical side of a cell layer. As usually defined, the IC50 is the concentration at which inhibition is half-maximal. Read a low IC50 as greater potency. For `CCc1c(N2CCN(C(=O)c3ncnc(C)c3O)CC2)c(=O)n2nc(-c3cc4ccccc4s3)nc2n1CC(=O)Nc1ccc(C(F)(F)F)cc1Cl` [Example 80, 2-(2-(benzo[b]thiophen-2-yl)-5-ethyl-6-(4-(5-hydroxy-6-methylpyrimidine-4-carbonyl)piperazin-1-yl)-7-oxo-[1,2,4]triazolo[1,5-a]pyrimidin-4(7H)-yl)-N-(2-chloro-4-(trifluoromethyl)phenyl)acet amide], the efflux ratio at 120 min, 10 µM in data set [1] (read-out: Efflux ratio Papp(B-A)/ Papp(A-B)) was 0.62. Further, the Papp A→B at 120 min, 10 µM in data set [1] (A to B) came to 3.67 ×10⁻⁶ cm/s. In addition, in data set [1] (B to A), the Papp B→A at 120 min, 10 µM worked out at 2.29 ×10⁻⁶ cm/s. In addition, in data set [2], the “efflux (in words)” value is given as “no significant efflux” and the “permeability (in words)” value is reported as “moderate permeability”. Besides, in data set [3], the half-life was 637 min. Further, in the data set with RL95-2 cells, the IC50 fell in the range of 1 to 100 nM.
